Like-named read-outs stand apart in the source and are kept apart here.
How the values were obtained:
[1] = From the text: A placebo group was included in the main study, and a group that received tolterodine monotherapy was included in the main study and in the extension.
[2] = Phase 3 study (75 mg), post-void residual urine volume (PVR); type: in vivo, human
From the text: The risk of acute urinary retention or morbidities related to an increase in Post-Void Residual (PVR) is a concern with antimuscarinic therapy that promotes smooth muscle relaxation by inhibiting acetylcholine-induced smooth muscle contraction. If, during contraction, the bladder cannot generate enough pressure to overcome the outlet resistance in the urethra, either because of poor detrusor contractility or profound obstruction (most commonly from BPH), acute urinary retention or incomplete emptying of the bladder may result.
The volume of urine that remains in the bladder after voiding (PVR) is an objective measurement that may serve as a proxy for impaired ability to void.
PVR were performed via ultrasound at the visits indicated in the Schedule of Activities.

[3] = Males with medical history of BPH

Cc1ccc(O)c([C@H](CCN(C(C)C)C(C)C)c2ccccc2)c1 [Tolterodine ER, tolterodine, reference compound]
frequency of injuries ([1]; Phase 2 study, tolterodine arm vs vibegron): 2.1%
SAEs reported in treatment group, number ([1]; tolterodine 4 mg, main study): 3
Accidental overdose ([1]; tolterodine ER 4 mg): 6 (2.3) n (%)
Alanine aminotransferase increased ([1]; tolterodine ER 4 mg): 1 (0.4) n (%)
Arthralgia ([1]; tolterodine ER 4 mg): 3 (1.2) n (%)
Aspartate aminotransferase increased ([1]; tolterodine ER 4 mg): 0 (0.0) n (%)
Constipation ([1]; tolterodine ER 4 mg): 5 (1.9) n (%)
Diarrhea ([1]; tolterodine ER 4 mg): 9 (3.5) n (%)
Discontinuation due to AE ([1]; tolterodine ER 4 mg): 4 (1.6) n (%)
Discontinuation due to drug-related AE ([1]; tolterodine ER 4 mg): 0 n (%)
Dizziness ([1]; tolterodine ER 4 mg): 5 (1.9) n (%)
Drug-related AE ([1]; tolterodine ER 4 mg): 42 (16.3) n (%)
Dry eye ([1]; tolterodine ER 4 mg): 10 (3.9) n (%)
Dry mouth ([1]; tolterodine ER 4 mg): 22 (8.6) n (%)
Dysuria ([1]; tolterodine ER 4 mg): 3 (1.2) n (%)
Fatigue ([1]; tolterodine ER 4 mg): 6 (2.3) n (%)
Headache ([1]; tolterodine ER 4 mg): 9 (3.5) n (%)
Nasopharyngitis ([1]; tolterodine ER 4 mg): 4 (1.6) n (%)
Nausea ([1]; tolterodine ER 4 mg): 6 (2.3) n (%)
Osteoarthritis ([1]; tolterodine ER 4 mg): 0 (0.0) n (%)
Pain in extremity ([1]; tolterodine ER 4 mg): 1 (0.4) n (%)
Serious AE ([1]; tolterodine ER 4 mg): 3 (1.2) n (%)
Sinusitis ([1]; tolterodine ER 4 mg): 1 (0.4) n (%)
Subjects with ≥1 AE ([1]; tolterodine ER 4 mg): 116 (45.1) n (%)
Urinary tract infection ([1]; tolterodine ER 4 mg): 12 (4.7) n (%)
PVR category at Week 12 <100 mL, patients ([2]; Females): 94.4%
PVR category at Week 12 ≥100 mL to <200 mL, patients ([2]; Females): 5.3%
PVR category at Week 12 ≥200 mL to <350 mL, patients ([2]; Females): 0.3%
PVR category at Week 12 ≥350 mL, patients ([2]; Females): 0
PVR, Mean Change from Baseline at Week 12 (SD) ([2]; Females): 1.9 (40.24) mL
PVR category at Week 12 <100 mL, patients ([2]; Males): 85.2%
PVR category at Week 12 ≥100 mL to <200 mL, patients ([2]; Males): 11.5%
PVR category at Week 12 ≥200 mL to <350 mL, patients ([2]; Males): 3.3%
PVR category at Week 12 ≥350 mL, patients ([2]; Males): 0
PVR, Mean Change from Baseline at Week 12 (SD) ([2]; Males): 10.2 (44.24) mL
PVR category at Week 12 <100 mL, patients [2, 3]: 71.4%
PVR category at Week 12 ≥100 mL to <200 mL, patients [2, 3]: 28.6%
PVR category at Week 12 ≥200 mL to <350 mL, patients [2, 3]: 0%
PVR category at Week 12 ≥350 mL, patients [2, 3]: 0
PVR, Mean Change from Baseline at Week 12 (SD) [2, 3]: 3.7 (50.64) mL
PVR category at Week 12 <100 mL, patients ([2]; all patients): 86.5%
PVR category at Week 12 ≥100 mL to <200 mL, patients ([2]; all patients): 5.8%
PVR category at Week 12 ≥200 mL to <350 mL, patients ([2]; all patients): 0.7%
PVR category at Week 12 ≥350 mL, patients ([2]; all patients): 0
PVR, Mean Change from Baseline at Week 12 (SD) ([2]; all patients): 3.1 (40.93) mL

O=C(Nc1ccc(C[C@@H]2CC[C@H]([C@H](O)c3ccccc3)N2)cc1)[C@@H]1CCc2nccc(=O)n21 [Vibegron, (6S)-N-[4-[[(2S,5R)−5-[(R)-hydroxy(phenyl)methyl]pyrrolidin−2-yl]methyl]phenyl]−4-oxo−7,8-dihydro−6H-pyrrolo[1,2-a]pyrimidine−6-carboxamide]
frequency of injuries ([1]; human, in vivo): 0.9%
Accidental overdose ([1]; vibegron 3 mg): 3 (2.1) n (%)
Accidental overdose ([1]; vibegron 15 mg): 6 (4.5) n (%)
Accidental overdose ([1]; vibegron 50 mg): 4 (2.7) n (%)
Accidental overdose ([1]; vibegron 100 mg): 11 (4.2) n (%)
PVR category at Week 12 <100 mL, patients ([2]; Females): 96.8%
PVR category at Week 12 ≥100 mL to <200 mL, patients ([2]; Females): 3.0%
PVR category at Week 12 ≥200 mL to <350 mL, patients ([2]; Females): 0.2%
PVR category at Week 12 ≥350 mL, patients ([2]; Females): 0
PVR, Mean Change from Baseline at Week 12 (SD) ([2]; Females): 0.1 (36.19) mL
PVR category at Week 12 <100 mL, patients ([2]; Males): 89.7%
PVR category at Week 12 ≥100 mL to <200 mL, patients ([2]; Males): 7.7%
PVR category at Week 12 ≥200 mL to <350 mL, patients ([2]; Males): 2.6%
PVR category at Week 12 ≥350 mL, patients ([2]; Males): 0
PVR, Mean Change from Baseline at Week 12 (SD) ([2]; Males): 2.2 (48.45) mL
PVR category at Week 12 <100 mL, patients [2, 3]: 96.6%
PVR category at Week 12 ≥100 mL to <200 mL, patients [2, 3]: 0%
PVR category at Week 12 ≥200 mL to <350 mL, patients [2, 3]: 3.4%
PVR category at Week 12 ≥350 mL, patients [2, 3]: 0
PVR, Mean Change from Baseline at Week 12 (SD) [2, 3]: −3.4 (42.45) mL
PVR category at Week 12 <100 mL, patients ([2]; all patients): 89.9%
PVR category at Week 12 ≥100 mL to <200 mL, patients ([2]; all patients): 3.5%
PVR category at Week 12 ≥200 mL to <350 mL, patients ([2]; all patients): 0.6%
PVR category at Week 12 ≥350 mL, patients ([2]; all patients): 0
PVR, Mean Change from Baseline at Week 12 (SD) ([2]; all patients): 0.4 (38.27) mL

— patent US20230027066A1 (Urovant Sciences GmbH, priority 2019, published 2023)
